Here are results for 13 molecules from publication PMC5609913, “Structure based design, synthesis and activity studies of small hybrid molecules as HDAC and G9a dual inhibitors” (Oncotarget, 2017).

The target of test [1] is T1, Mouse histone methyltransferase G9a (969-1263) (Mus musculus, UniProt Q9Z148).
T1 construct: The 6His-sumo mG9a (969-1263) protein was purified using the following procedure; 6His-sumo (N, cleaved yes); made in house; host or cells: Escherichia coli BL21 (DE3)
T1 sequence (Q9Z148 969-1263): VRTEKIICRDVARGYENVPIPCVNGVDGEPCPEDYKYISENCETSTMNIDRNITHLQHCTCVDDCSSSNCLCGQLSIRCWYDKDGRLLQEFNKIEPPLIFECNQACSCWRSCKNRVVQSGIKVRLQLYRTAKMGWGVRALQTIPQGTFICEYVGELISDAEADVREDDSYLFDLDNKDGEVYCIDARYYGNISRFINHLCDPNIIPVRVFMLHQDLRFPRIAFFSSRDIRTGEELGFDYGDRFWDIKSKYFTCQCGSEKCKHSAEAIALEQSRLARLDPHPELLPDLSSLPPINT
Briefly: MALDI-TOF methylation study of G9a enzymatic activity (H3 peptide, SAM). The conditions noted are these: Supplementary Table 1; inhibitor 5 μM, 30 min; average of 3 values. The test is classed as biochemical. As for the experimental part: Figure 3 compounds were synthesized from the commercially available starting material 1. An initial displacement reaction using a primary amine was used to introduce the C4 selective substitution, with the second displacement to introduce the linker at the C2 position following the microwave assisted reaction previously reported. Boc-protected ethylene diamine was treated with compound 2 at 160°C in a microwave for 10 min to yield product 3 with excellent yield. Afterward, the amine 3 was deprotected with TFA/DCM, and the free amine was treated with corresponding monomethyl esters (carbon chain 2-6) in the presence of coupling reagent EDCI and HOBt for about 8 hours to produce mono methyl ester substituted at the C2 position. The ester compounds further treated with hydroxylamine in water to get the corresponding hydroxamic acid derivatives, which were purified using reverse phase flash chromatography to obtain compounds 4-7 and 4a-7a in good yield. Synthesis of compounds in Figure 4 requires the C6 demethoxy core, and this was synthesized according to the reported procedure to yield 10 [45]. […] Compounds with the HDAC pharmacophore at the C4 position (Figure 2B) were synthesized from the starting material 1. […] A parallel synthesis and testing strategy were used in establishing the primary SAR, with the clear rationalization of the structure and activity at each stage we could reduce the synthetic targets. Initially, we evaluated the G9a potential after the introduction of HDAC pharmacophore. A biochemical assay using MALDI-TOF was used to visualize the effects of the synthesized compounds on G9a enzymatic activity, we carried out a biochemical reaction involving target enzyme G9a, methyl donor SAM and substrate H3 peptide at a concentration of 400 nM, 10 μM and 5 μM respectively.
Mouse histone methyltransferase G9a (969-1263) cDNA was amplified from the cDNA of BALB/c mouse thymus, and the fragment was sub-cloned into a vector with a 6His-sumo tag. The mouse G9a (mG9a) was expressed in Escherichia coli BL21 (DE3) by the addition of 1 mM isopropyl-1-thio-D-galactopyranoside (IPTG) and incubated overnight at 16°C.
The in vitro inhibition of G9a by the synthesized compounds were measured by MALDI-TOF mass spectrum (Bruker MALDI TOF/TOF Analyzer). 400 nM purified G9a, 5 μM synthesized histone H3 (1-21) and 10 μM non-radioactive S-adenosyl methionine (Sigma) were added in reaction buffer (50 mM HEPES pH 8.0, 5 μg/ml BSA and 0.1% β-Mercaptoethanol) with or without inhibitors (5 μM). The reaction was incubated at room temperature for 30 min, and stopped by TFA. 1 μl of the sample was mixed with CHCA matrix and m/z peaks were obtained at reflection positive mode. The results of mass spectrum were analyzed using the Bruker flex analysis software, a detailed description of data processing is provided as supplementary information (S3).
[…]
MALDI spectrums were collected using Bruker flex % conversion to product is also C, from this to get the control software and analyzed by flex analysis. After %maximal activity (%MA), C was compared to the % labelling each cluster peaks of H3K9Me0, H3K9Me1 conversion when no inhibitor was used (D). and H3K9Me2 for all of the tested concentrations, area Finally % inhibition was found by subtracting under the cluster (AUC) were extracted by using the same %MA from 100 […]
flex analysis software. % abundance of each peak was Example: % methylation levels and % inhibition calculated by following formula, when used 5 μM compound 14
A = % Abundance of (H3K9Me0) = area of A = 13.09
B = % Abundance of (H3K9Me1) = area of % conversion when no inhibitor was used D = 84.43 H3K9Me1/ (area of H3K9Me0+area of H3K9Me1 + area (average of six measurements) […]

For test [2], the system named is HDAC. Briefly: Homogeneous cellular histone deacetylase assay, Hela. It is filed as cell-based, human. To be noted: for IC50: Supplementary Table 2, NA = not active up to highest concentration tested (100 μM), >100 = IC50 not reached at 100 μM, read-out: IC50-HDAC Hela. On the procedure: (§1) The enzymatic activity of HDAC was measured in intact cells using the homogeneous cellular assay method. A cell-permeable peptide Boc-K(Ac)-AMC used as the HDAC substrate, after deacetylation it is cleaved by trypsin to release the fluorescent 7-amino-4-methylcoumarin (AMC) and further quantified.
(§2) The manual assay was developed by Thomas's group. […] After 24 h, 9 μl inhibitors with different concentration were added to the HeLa cells and incubation was continued for 3 h under cell culture conditions. After this treatment period, 10 μl of a 2 mM stock solution of the substrate Boc-K(Ac)-AMC was added into the 96 well plates with Hela cells and inhibitors. […] A549 and K562 cell lines used the same method, respectively. IC50s were calculated using GraphPad Prizm statistical package with sigmoidal variable slope dose response curve fit.

In test [3] the test system is HDAC. Put plainly: Homogeneous cellular histone deacetylase assay, K562. To be noted: Supplementary Table 2; NA = not active up to highest concentration tested (100 μM); >100 = IC50 not reached at 100 μM; read-out: IC50-HDAC K562. The test is classed as cell-based, human. As for the experimental part:
as §1, §2

Test [4] deals with HDAC. Put plainly: Homogeneous cellular histone deacetylase assay, A549. The test is classed as cell-based, human. To be noted: Supplementary Table 2; NA = not active up to highest concentration tested (100 μM); >100 = IC50 not reached at 100 μM. As for the experimental part: as §1, §2
Test [5] has as its system A549 cells. Briefly: Cell anti-proliferation / toxicity assay (CCK-8), A549. The test is classed as cell-based. The conditions noted are these: Homo sapiens, Supplementary Table 4, 72 h, NA = not active up to highest concentration tested (100 μM). On the procedure: Cell anti-proliferation assays were performed to determine the toxicity of these inhibitors. […] These compounds were further evaluated against the control cell line HEK293 to test their toxicity with a non-cancerous cell line.
And then the cells were exposed to the different inhibitors with various concentrations for 72 h. […] EC50s were calculated using GraphPad Prizm statistical package with sigmoidal variable slope dose response curve fit.

Regarding `COc1cc2nc(NCCNC(=O)CCCCCCC(=O)NO)nc(NC3CCN(C)CC3)c2cc1OC` [Compound 4, N1-(2-((6,7-dimethoxy-4-((1-methylpiperidin-4-yl)amino)quinazolin-2-yl)amino)ethyl)-N8-hydroxyoctanediamide], in test [1], the inhibition at 5 µM was determined as 27 ± 12.2%.

As for `COc1cc2nc(NCCNC(=O)CCCCCCC(=O)NO)nc(NC3CCN(C(C)C)CC3)c2cc1OC` [Compound 4a, N1-hydroxy-N8-(2-((4-((1-isopropylpiperidin-4-yl)amino)-6,7-dimethoxyquinazolin-2-yl)amino)ethyl)octanediamide], in test [1], the inhibition at 5 µM is 11.2 ± 3.68%.

Turning to `COc1cc2nc(NCCNC(=O)CCCCCC(=O)NO)nc(NC3CCN(C(C)C)CC3)c2cc1OC` [Compound 5a, N1-hydroxy-N7-(2-((4-((1-isopropylpiperidin-4-yl)amino)-6,7-dimethoxyquinazolin-2-yl)amino)ethyl)heptanediamide], in test [1], the inhibition at 5 µM worked out at 47.5 ± 9.32%.

For `COc1cc2nc(NCCNC(=O)CCCCCC(=O)NO)nc(NC3CCN(Cc4ccccc4)CC3)c2cc1OC` [Compound 5b, N1-(2-((4-((1-benzylpiperidin-4-yl)amino)-6,7-dimethoxyquinazolin-2-yl)amino)ethyl)-N7-hydroxyheptanediamide], the “HDAC inhibition (in words)” value in test [2] (candidates tested in both Hela and K562 cell lines, compared with Compound 14) is on record as “did not show decent inhibition of HDAC”. For the same molecule, the inhibition at 5 µM in test [1] worked out at 38 ± 4.99%.

With `COc1cc2nc(NCCNC(=O)CCCC(=O)NO)nc(NC3CCN(C)CC3)c2cc1OC` [Compound 7, N1-(2-((6,7-dimethoxy-4-((1-methylpiperidin-4-yl)amino)quinazolin-2-yl)amino)ethyl)-N5-hydroxyglutaramide], in test [1], the inhibition at 5 µM turned out to be 19.6 ± 20.9%.

In the case of `COc1cc2nc(NCCNC(=O)CCCC(=O)NO)nc(NC3CCN(C(C)C)CC3)c2cc1OC` [Compound 7a, N1-hydroxy-N5-(2-((4-((1-isopropylpiperidin-4-yl)amino)-6,7-dimethoxyquinazolin-2-yl)amino)ethyl)glutaramide], the inhibition at 5 µM in test [1] was determined as 15 ± 15.7%.

In the case of `COc1ccc2c(NC3CCN(Cc4ccccc4)CC3)nc(NCCNC(=O)CCCCC(=O)NO)nc2c1` [Compound 15, N1-(2-((4-((1-benzylpiperidin-4-yl)amino)-7-methoxyquinazolin-2-yl)amino)ethyl)-N6-hydroxyadipamide], the half-maximal inhibitory concentration (IC50) in test [2], in test [3] and in test [4] was more than 100 µM in each case. In test [1], this molecule gave an inhibition at 5 µM of 69.1 ± 24.5%.

Turning to `COc1ccc2c(NC3CCN(C)CC3)nc(NCCNC(=O)CCCCC(=O)NO)nc2c1` [Compound 15a, N1-hydroxy-N6-(2-((7-methoxy-4-((1-methylpiperidin-4-yl)amino)quinazolin-2-yl)amino)ethyl)adipamide], the half-maximal inhibitory concentration (IC50) in test [2], in test [3] and in test [4] was more than 100 µM in each case. In addition, at 5 µM the inhibition in test [1] was 47.9 ± 12.9%.

For the molecule `COc1ccc2c(NC3CCN(Cc4ccccc4)CC3)nc(NCCNC(=O)CCCC(=O)NO)nc2c1` [Compound 16, N1-(2-((4-((1-benzylpiperidin-4-yl)amino)-7-methoxyquinazolin-2-yl)amino)ethyl)-N5-hydroxyglutaramide], in test [5], the EC50 was more than 100 µM. For the same molecule, the IC50 in test [2], in test [3] and in test [4] was more than 100 µM throughout. This molecule registered an inhibition at 5 µM in test [1] of 40.3 ± 13.8%.

As to `COc1ccc2c(NC3CCN(C)CC3)nc(NCCNC(=O)CCCC(=O)NO)nc2c1` [Compound 16a, N1-hydroxy-N5-(2-((7-methoxy-4-((1-methylpiperidin-4-yl)amino)quinazolin-2-yl)amino)ethyl)glutaramide], the IC50 in test [2], in test [3] and in test [4] was more than 100 µM each time. Besides, the inhibition at 5 µM in test [1] is 40.3 ± 13.8%.

For the molecule `COc1cc2nc(N3CCCN(C)CC3)nc(NC3CCN(C(=O)CCCCCCC(=O)NO)CC3)c2cc1OC` [Compound 19, 8-(4-((6,7-dimethoxy-2-(4-methyl-1,4-diazepan-1-yl)quinazolin-4-yl)amino)piperidin-1-yl)-N-hydroxy-8-oxooctanamide], the IC50 in test [2], in test [3] and in test [4] was more than 100 µM each time. The inhibition at 5 µM in test [1] amounted to 10.7 ± 25.9%.

As to `COc1cc2nc(N3CCCN(C)CC3)nc(NC3CCN(C(=O)CCCCCC(=O)NO)CC3)c2cc1OC` [Compound 20, 7-(4-((6,7-dimethoxy-2-(4-methyl-1,4-diazepan-1-yl)quinazolin-4-yl)amino)piperidin-1-yl)-N-hydroxy-7-oxoheptanamide], the IC50 in test [2], in test [3] and in test [4] was more than 100 µM in each case. This molecule also gave an inhibition at 5 µM in test [1] of 14.6 ± 15.8%.

With `COc1ccc2c(NCCNC(=O)CCCCCC(=O)NO)nc(N3CCCN(C)CC3)nc2c1` [Compound 22, N1-hydroxy-N7-(2-((7-methoxy-2-(4-methyl-1,4-diazepan-1-yl)quinazolin-4-yl)amino)ethyl)heptanediamide], the IC50 in test [2], in test [3] and in test [4] was more than 100 µM in each case. Moreover, in test [1], 5 µM produced 40.3 ± 15.3% inhibition.
